The record followed here is ChEMBL document CHEMBL1133835, “A unique ring-expanded acyclic nucleoside analogue that inhibits both adenosine deaminase (ADA) and guanine deaminase (GDA; guanase): synthesis and enzyme inhibition studies of 4,6-diamino-8H-1-hydroxyethoxymethyl-8-iminoimidazo[4,5-e][1,3]diazepine” (Bioorg Med Chem Lett, 2001).

For orientation: Ki means the equilibrium dissociation constant of an inhibitor or competing ligand from its target. Lower therefore signals a stronger hold on the target.

The assay deals with T1, Adenosine deaminase (Bos taurus, UniProt P56658).
T1 sequence (P56658 whole entry): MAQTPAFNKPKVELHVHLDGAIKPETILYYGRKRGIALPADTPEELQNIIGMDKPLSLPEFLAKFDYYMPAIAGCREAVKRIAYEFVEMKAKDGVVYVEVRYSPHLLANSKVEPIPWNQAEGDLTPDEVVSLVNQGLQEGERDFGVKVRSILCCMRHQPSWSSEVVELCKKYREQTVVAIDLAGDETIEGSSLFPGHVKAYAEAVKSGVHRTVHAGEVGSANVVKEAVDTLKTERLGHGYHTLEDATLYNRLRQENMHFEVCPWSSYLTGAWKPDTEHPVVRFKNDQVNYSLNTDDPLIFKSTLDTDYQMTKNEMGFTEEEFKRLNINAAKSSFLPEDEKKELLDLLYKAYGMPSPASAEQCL
Nature of the assay: Binding affinity against Adenosine deaminase from calf intestinal mucosa was determined. Type of assay: tissue-based.

Take `CCCCCC[C@@H]([C@@H](C)O)n1cnc2c(N)ncnc21` [EHNA]: affinity was put at a Ki of 0.01 µM.
